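How tested: cells in 96-well plates exposed to compound for 48 hours at five concentrations. At the GI50, growth is halved.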 The source made the active and inactive calls. Rule as the data show it: active = GI50 up to about 1.1 µM and inactive = higher.
Experiments:
Test in all cases: NCI tumour cell line growth inhibition, 48 h
[1] = system: K562
[2] = system: CAKI-1
[3] = system: NCI-H23
[4] = system: SW-620
[5] = system: Hs-578T
[6] = system: MCF7
[7] = system: MDA-N
[8] = system: MOLT-4
[9] = system: SF-295
[10] = system: HCC 2998
[11] = system: COLO 205
[12] = system: IGROV-1
[13] = system: SNB-19
[14] = system: SK-OV-3
[15] = system: BT-549
[16] = system: MDA-MB-435
[17] = system: U-251
[18] = system: OVCAR-5
[19] = system: OVCAR-8
[20] = system: DMS-114

Structure (SMILES)	GI50 [1]	GI50 [2]	GI50 [3]	GI50 [4]	GI50 [5]	GI50 [6]	GI50 [7]	GI50 [8]	GI50 [9]	GI50 [10]	GI50 [11]	GI50 [12]	GI50 [13]	GI50 [14]	GI50 [15]	GI50 [16]	GI50 [17]	GI50 [18]	GI50 [19]	GI50 [20]
O=C(O)[C@H](c1ccccc1)[C@@H](C(=O)O)c1ccccc1	> 100 µM (inactive)	> 100 µM (inactive)	> 100 µM (inactive)	> 100 µM (inactive)	> 100 µM (inactive)	> 100 µM (inactive)	> 100 µM (inactive)	> 100 µM (inactive)	> 100 µM (inactive)	> 100 µM (inactive)	> 100 µM (inactive)	> 100 µM (inactive)	> 100 µM (inactive)	> 100 µM (inactive)	> 100 µM (inactive)	> 100 µM (inactive)	> 100 µM (inactive)	> 100 µM (inactive)	> 100 µM (inactive)	–
O=[N+]([O-])c1ccccc1C1N2CCCCC2[C@@H]2c3[nH]c4ccccc4c3CCN12 (stereo not given in full)	3.57 µM (inactive)	14 µM (inactive)	14.4 µM (inactive)	11.4 µM (inactive)	–	–	–	5.78 µM (inactive)	13.8 µM (inactive)	–	13.2 µM (inactive)	15.6 µM (inactive)	14.9 µM (inactive)	17.9 µM (inactive)	–	–	15.6 µM (inactive)	19.1 µM (inactive)	16.8 µM (inactive)	4.34 µM (inactive)
CC(=O)O[C@H]1C(=O)[C@@]2(C)[C@H]([C@H](OC(=O)c3ccccc3)[C@]3(O)C[C@H](OC(=O)[C@H](O)[C@@H](NC(=O)C(C)(C)C)c4ccccc4)C(C)=C1C3(C)C)[C@]1(OC(C)=O)CO[C@@H]1C[C@@H]2O	0.0516 µM (active)	1.56 µM (inactive)	0.075 µM (active)	0.0459 µM (active)	0.0485 µM (active)	0.031 µM (active)	0.022 µM (active)	0.0454 µM (active)	0.29 µM (active)	0.0702 µM (active)	0.0444 µM (active)	0.0476 µM (active)	2.35 µM (inactive)	0.0177 µM (active)	0.342 µM (active)	0.0158 µM (active)	0.137 µM (active)	0.508 µM (active)	0.0668 µM (active)	–
O=[N+]([O-])c1cccc(C(O)/C(=N/Nc2ccccc2)C2Nc3ccc([N+](=O)[O-])cc3N=C2O)c1 (stereo not given)	30.5 µM (inactive)	–	> 100 µM (inactive)	49.3 µM (inactive)	–	–	–	27.2 µM (inactive)	60.4 µM (inactive)	33.4 µM (inactive)	61.1 µM (inactive)	38.7 µM (inactive)	> 100 µM (inactive)	> 100 µM (inactive)	–	–	88.1 µM (inactive)	49.3 µM (inactive)	> 100 µM (inactive)	24.9 µM (inactive)
CC(C)c1cccc(C(C)C)c1NC(=O)/C(CC(=O)CC(c1ccccc1)c1c(O)c2ccccc2oc1=O)=N/O (stereo not given)	> 100 µM (inactive)	> 100 µM (inactive)	> 100 µM (inactive)	> 100 µM (inactive)	> 100 µM (inactive)	> 100 µM (inactive)	> 100 µM (inactive)	> 100 µM (inactive)	> 100 µM (inactive)	> 100 µM (inactive)	> 100 µM (inactive)	> 100 µM (inactive)	> 100 µM (inactive)	> 100 µM (inactive)	> 100 µM (inactive)	> 100 µM (inactive)	> 100 µM (inactive)	> 100 µM (inactive)	> 100 µM (inactive)	–
CC1(C)OCC2OC(n3cnc4c(N)nc(Cl)nc43)C(OS(C)(=O)=O)C2O1 (stereo not given)	> 100 µM (inactive)	> 100 µM (inactive)	> 100 µM (inactive)	> 100 µM (inactive)	> 100 µM (inactive)	> 100 µM (inactive)	> 100 µM (inactive)	48.2 µM (inactive)	> 100 µM (inactive)	> 100 µM (inactive)	> 100 µM (inactive)	> 100 µM (inactive)	> 100 µM (inactive)	> 100 µM (inactive)	> 100 µM (inactive)	> 100 µM (inactive)	> 100 µM (inactive)	> 100 µM (inactive)	> 100 µM (inactive)	–
CC(C)OP(=O)(OC(C)C)/C(N)=N/Nc1ccc([N+](=O)[O-])cc1	77.6 µM (inactive)	> 100 µM (inactive)	63 µM (inactive)	> 100 µM (inactive)	–	–	–	52.1 µM (inactive)	–	> 100 µM (inactive)	> 100 µM (inactive)	–	77.4 µM (inactive)	–	–	–	> 100 µM (inactive)	> 100 µM (inactive)	> 100 µM (inactive)	57.8 µM (inactive)
CC(C(=O)ON1C(=O)CCC1=O)c1ccc(C(=O)c2ccccc2)s1 (stereo not given)	> 100 µM (inactive)	> 100 µM (inactive)	> 100 µM (inactive)	> 100 µM (inactive)	> 100 µM (inactive)	> 100 µM (inactive)	> 100 µM (inactive)	> 100 µM (inactive)	> 100 µM (inactive)	> 100 µM (inactive)	> 100 µM (inactive)	> 100 µM (inactive)	> 100 µM (inactive)	> 100 µM (inactive)	> 100 µM (inactive)	> 100 µM (inactive)	> 100 µM (inactive)	> 100 µM (inactive)	> 100 µM (inactive)	–

Reference: ChEMBL document CHEMBL1201862, “PubChem BioAssay data set” (2004)
